Assay [1] addresses T1, KRAS-G12C/SOS1 (Homo sapiens, UniProt Q07889).
T1 construct: purchased Cisbio 63ADKOOOCB16PEG
T1 sequence (Q07889 1-1333): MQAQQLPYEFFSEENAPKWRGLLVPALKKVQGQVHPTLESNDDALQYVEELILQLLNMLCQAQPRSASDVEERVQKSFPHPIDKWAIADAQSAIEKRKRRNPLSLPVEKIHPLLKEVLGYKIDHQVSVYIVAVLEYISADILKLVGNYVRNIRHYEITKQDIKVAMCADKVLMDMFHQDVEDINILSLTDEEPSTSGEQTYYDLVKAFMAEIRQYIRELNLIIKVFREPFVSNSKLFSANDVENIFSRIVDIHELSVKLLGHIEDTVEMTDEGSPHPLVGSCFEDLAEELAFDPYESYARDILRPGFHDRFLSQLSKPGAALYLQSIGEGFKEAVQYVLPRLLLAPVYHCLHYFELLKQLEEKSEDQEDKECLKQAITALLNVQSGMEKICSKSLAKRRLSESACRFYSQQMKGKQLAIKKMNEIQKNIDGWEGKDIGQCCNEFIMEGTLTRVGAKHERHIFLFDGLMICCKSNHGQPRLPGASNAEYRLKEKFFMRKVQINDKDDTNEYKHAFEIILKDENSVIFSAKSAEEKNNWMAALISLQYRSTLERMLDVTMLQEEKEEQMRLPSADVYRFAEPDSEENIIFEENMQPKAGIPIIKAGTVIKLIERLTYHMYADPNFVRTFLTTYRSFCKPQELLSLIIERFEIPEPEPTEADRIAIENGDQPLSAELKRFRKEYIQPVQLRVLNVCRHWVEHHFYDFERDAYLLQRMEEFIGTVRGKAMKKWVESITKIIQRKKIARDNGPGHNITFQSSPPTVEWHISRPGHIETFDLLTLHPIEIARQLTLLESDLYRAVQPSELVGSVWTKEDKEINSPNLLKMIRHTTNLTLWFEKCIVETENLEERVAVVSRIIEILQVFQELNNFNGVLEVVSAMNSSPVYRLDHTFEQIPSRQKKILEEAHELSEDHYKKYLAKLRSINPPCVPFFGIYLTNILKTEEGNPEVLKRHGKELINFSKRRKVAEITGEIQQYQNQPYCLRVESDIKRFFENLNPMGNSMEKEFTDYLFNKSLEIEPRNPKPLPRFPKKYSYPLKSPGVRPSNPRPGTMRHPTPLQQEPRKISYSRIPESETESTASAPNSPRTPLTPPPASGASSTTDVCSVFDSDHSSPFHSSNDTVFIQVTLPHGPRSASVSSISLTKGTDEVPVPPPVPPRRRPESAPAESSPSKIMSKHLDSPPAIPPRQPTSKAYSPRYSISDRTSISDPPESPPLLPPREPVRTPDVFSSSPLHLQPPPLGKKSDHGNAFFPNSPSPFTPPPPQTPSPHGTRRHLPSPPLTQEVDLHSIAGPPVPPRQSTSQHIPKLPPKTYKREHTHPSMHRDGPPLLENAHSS
The assay is described as follows: KRAS-G12C/SOS1 binding assay (HTRF). The settings on record: inhibition of KRAS-G12C/SOS1 binding. Put shortly:
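HTRF competition assay with Tag1-SOS1 and Tag2-KRAS-G12C (10 μM GTP). Compounds at 10000 nM-0.04 nM final (0.5% DMSO), incubated 15 min at 25° C, then anti-tag Tb3+/XL665 antibodies added for 3 h on ice. The 665/620 nm ratio was compared with control and IC50 derived by nonlinear fit.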

Assay [2] addresses T2, SOS1 protein (Homo sapiens, UniProt Q07889).
T2 sequence (Q07889 1-1333): T1 sequence (Q07889 1-1333)
The assay is described as follows: SOS1 degradation assay (Western blot), NCI-H358 cells. The assay is classed as cell-based. On the set-up: The degradation of SOS1 by the compounds was investigated on KRAS G12C mutant human non-small cell lung cancer cells NCI-H358; host or cells: NCI-H358 (human cancer cell lines). Particulars: SOS1 degradation, NCI-H358 cells, 24 h, Western blot; for DC50: read-out: NCI-H358 (G12C) DC50; for Dmax: read-out: NCI-H358 (G12C) Dmax. The procedure, abridged: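 SOS1 degradation was assessed by densitometry of Western blots, relative to untreated controls, after 24 h compound exposure (0.03–3000 nM final, 37 °C, 5% CO2) of cells seeded at 5×10^5/well. Log concentration–response fitting gave DC50 and Dmax.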

Structures are written as SMILES. pIC50: −log10 of the molar value. A value given as a limit tells only on which side of the number the result lay.

With `COc1cc2nc(C)nc(N[C@H](C)c3cc(-c4c(Cl)cccc4CN(C)C)cs3)c2cc1[C@H]1CC[C@H](C(=O)N2CCC(OCCCC3CCN(C(=O)c4ccc(Cl)c(N5CCC(=O)NC5=O)c4)CC3)CC2)CC1` [Example 61, 1-(2-chloro-5-(4-(3-((1-((1R,4R)-4-(4-(((R)-1-(4-(2-chloro-6-((dimethylamino)methyl)phenyl)thien-2-yl)ethyl)amino)-7-methoxy-2-methylquinazolin-6-yl)cyclohexane-1-carbonyl)piperidin-4-yl)oxy)propyl)piperidine-1-carbonyl)phenyl)dihydropyrimidine-2,4(1H,3H)-dione], in assay [1], the pIC50 was ≥ 7.82. In assay [2], the DC50 was in the range of 100 to 500 nM and the maximal degradation (Dmax) is 50 to 80%.

Consider `COc1cc2nc(C)nc(N[C@H](C)c3cc(-c4c(Cl)cccc4CN(C)C)cs3)c2cc1[C@H]1CC[C@H](C(=O)N2CCN(CCC3CCC4(CC3)CCN(C(=O)c3ccc(Cl)c(N5CCC(=O)NC5=O)c3)CC4)CC2)CC1` [Example 62, 1-(2-chloro-5-(9-(2-(4-((1R,4R)-4-(4-(((R)-1-(4-(2-chloro-6-((dimethylamino)methyl)phenyl)thien-2-yl)ethyl)amino)-7-methoxy-2-methylquinazolin-6-yl)cyclohexane-1-carbonyl)piperazin-1-yl)ethyl)-3-azaspiro[5.5]undecane-3-carbonyl)phenyl)dihydropyrimidine-2,4(1H,3H)-dione], for which the pIC50 in assay [1] was ≥ 7.82. Besides, in assay [2], the half-maximal degradation concentration (DC50) is < 50 nM and the Dmax was in the range of 80 to 100%.

`COc1cc2nc(C)nc(N[C@H](C)c3cc(N)cc(C(F)(F)F)c3)c2cc1C1=CCC(C(=O)N2CCC(CCOCC3CCN(C(=O)c4ccc(Cl)c(N5CCC(=O)NC5=O)c4)CC3)CC2)CC1` (stereo partly drawn) [Example 64, 1-(5-(4-((2-(1-(4-(4-(((R)-1-(3-amino-5-(trifluoromethyl)phenyl)ethyl)amino)-7-methoxy-2-methylquinazolin-6-yl)cyclohex-3-ene-1-carbonyl)piperidin-4-yl)ethoxy)methyl)piperidine-1-carbonyl)-2-chlorophenyl)dihydropyrimidine-2,4(1H,3H)-dione]: the negative logarithm of the IC50 (pIC50) in assay [1] was ≥ 7.82. For the same compound, in assay [2], the DC50 was < 50 nM and the greatest degradation seen (Dmax) lay within 50 to 80%.

In the case of `COc1cc2nc(C)nc(N[C@H](C)c3cc(-c4c(Cl)cccc4CN(C)C)cs3)c2cc1[C@H]1CC[C@H](C(=O)N2CCC(COCC3CCN(C(=O)c4ccc(Cl)c(N5CCC(=O)NC5=O)c4)CC3)CC2)CC1` [Example 65, 1-(2-chloro-5-(4-(((1-((1R,4R)-4-(4-(((R)-1-(4-(2-chloro-6-((dimethylamino)methyl)phenyl)thien-2-yl)ethyl)amino)-7-methoxy-2-methylquinazolin-6-yl)cyclohexane-1-carbonyl)piperidin-4-yl)methoxy)methyl)piperidine-1-carbonyl)phenyl)dihydropyrimidine-2,4(1H,3H)-dione], in assay [1], the pIC50 is ≥ 7.82. In assay [2], the DC50 was 1000 to 10000 nM and the Dmax was < 30%.

For `COc1cc2nc(C)nc(N[C@H](C)c3cc(-c4c(Cl)cccc4CN(C)C)cs3)c2cc1[C@H]1CC[C@H](C(=O)N2CCN(CCOCC3CCN(C(=O)c4ccc(Cl)c(N5CCC(=O)NC5=O)c4)CC3)CC2)CC1` [Example 67, 1-(2-chloro-5-(4-((2-(4-((1R,4R)-4-(4-(((R)-1-(4-(2-chloro-6-((dimethylamino)methyl)phenyl)thien-2-yl)ethyl)amino)-7-methoxy-2-methylquinazolin-6-yl)cyclohexane-1-carbonyl)piperazin-1-yl)ethoxy)methyl)piperidine-1-carbonyl)phenyl)dihydropyrimidine-2,4(1H,3H)-dione], the negative logarithm of the IC50 (pIC50) in assay [1] is ≥ 7.82. In addition, in assay [2], the 50% degradation concentration (DC50) was < 50 nM and the maximal degradation (Dmax) lay in the range of 80 to 100%.

For the compound `COc1cc2nc(C)nc(N[C@H](C)c3cc(-c4c(Cl)cccc4CN(C)C)cs3)c2cc1[C@H]1CC[C@H](C(=O)N2CCN(CCCOC3CCN(C(=O)c4ccc(Cl)c(N5CCC(=O)NC5=O)c4)CC3)CC2)CC1` [Example 68, 1-(2-chloro-5-(4-(3-(4-((1R,4R)-4-(4-(((R)-1-(4-(2-chloro-6-((dimethylamino)methyl)phenyl)thien-2-yl)ethyl)amino)-7-methoxy-2-methylquinazolin-6-yl)cyclohexane-1-carbonyl)piperazin-1-yl)propoxy)piperidine-1-carbonyl)phenyl)dihydropyrimidine-2,4(1H,3H)-dione], in assay [1], the pIC50 is ≥ 7.82. Further, in assay [2], the DC50 is < 50 nM and the Dmax fell in the range of 50 to 80%.

As for `CNCc1cccc(Cl)c1-c1csc([C@@H](C)Nc2nc(C)nc3cc(OC)c([C@H]4CC[C@H](C(=O)N5CCC(CCOCC6CCN(C(=O)c7ccc(Cl)c(N8CCC(=O)NC8=O)c7)CC6)CC5)CC4)cc23)c1` [Example 69, 1-(2-chloro-5-(4-((2-(1-((1R,4R)-4-(4-(((R)-1-(4-(2-chloro-6-((methylamino)methyl)phenyl)thien-2-yl)ethyl)amino)-7-methoxy-2-methylquinazolin-6-yl)cyclohexane-1-carbonyl)piperidin-4-yl)ethoxy)methyl)piperidine-1-carbonyl)phenyl)dihydropyrimidine-2,4(1H,3H)-dione], in assay [1], the pIC50 was ≥ 7.82. Besides, in assay [2], the DC50 is < 50 nM and the Dmax fell in the range of 50 to 80%.

Turning to `COc1cc2nc(C)nc(N[C@H](C)c3cc(-c4c(Cl)cccc4CN(C)C)cs3)c2cc1[C@H]1CC[C@H](C(=O)N2CCC(COCCC3CCN(C(=O)c4ccc(Cl)c(N5CCC(=O)NC5=O)c4)CC3)CC2)CC1` [Example 70, 1-(2-chloro-5-(4-(2-((1-((1R,4R)-4-(4-(((R)-1-(4-(2-chloro-6-((dimethylamino)methyl)phenyl)thien-2-yl)ethyl)amino)-7-methoxy-2-methylquinazolin-6-yl)cyclohexane-1-carbonyl)piperidin-4-yl)methoxy)ethyl)piperidine-1-carbonyl)phenyl)dihydropyrimidine-2,4(1H,3H)-dione], the negative-log IC50 (pIC50) in assay [1] is ≥ 7.82. In assay [2], the DC50 was < 50 nM and the maximal degradation (Dmax) was 80 to 100%.

For the compound `COc1cc2nc(C)nc(N[C@H](C)c3cc(-c4c(Cl)cccc4CN(C)C)cs3)c2cc1[C@H]1CC[C@H](C(=O)N2CCN(CCCCC3CCN(C(=O)c4ccc(Cl)c(N5CCC(=O)NC5=O)c4)CC3)CC2)CC1` [Example 71, 1-(2-chloro-5-(4-(4-(4-((1R,4R)-4-(4-(((R)-1-(4-(2-chloro-6-((dimethylamino)methyl)phenyl)thien-2-yl)ethyl)amino)-7-methoxy-2-methylquinazolin-6-yl)cyclohexane-1-carbonyl)piperazin-1-yl)butyl)piperidine-1-carbonyl)phenyl)dihydropyrimidine-2,4(1H,3H)-dione], in assay [1], the negative logarithm of the IC50 (pIC50) was ≥ 7.82. Besides, in assay [2], the DC50 was < 50 nM and the maximal degradation (Dmax) fell in the range of 80 to 100%.

Values taken from US20240261417A1, “SOS1 DEGRADING AGENT AND PREPARATION METHOD THEREFOR AND APPLICATION THEREOF” (SHANGHAI LEADINGTAC PHARMACEUTICAL CO. LTD., priority 2021, published 2024).
